Results: patent US20130210633A1, “METHOD FOR REDUCING WATER STRESS IN PLANTS” (SUMITOMO CHEMICAL COMPANY, LIMITED, priority 2010, published 2013)
Structures can show the parent of a compound that is named as a salt.

Tested on: rice (cultivar: Nipponbare)
Assay: Evaluation test for reduction of drought stress by rice seed treatment (plant weight)
Type: in vivo
Conditions: with drought stress conditions; for Ratio to non-treated group: fresh weight of above-ground part; for Fresh weight of the above-ground part: seed treatment, average of 3 repetitions
Protocol: Evaluation Test for Reduction of Drought Stress by Rice Seed Treatment (Plant Weight) A Blank slurry solution containing 5% (V/V) color coat red (Becker Underwood, Inc.), 5% (V/V) CF-Clear (Becker Underwood, Inc.) and 0.4% Maxim XL (Syngenta) was prepared. A sodium salt of the compound “A” was dissolved in the Blank slurry to obtain a slurry solution containing the sodium salt of the compound “A” in a concentration of 333 to 10,000 ppm. In a 50-ml centrifuge tube made of a plastic, 300 μl of the above slurry solution was added to 10 g of rice seeds (cultivar: Nipponbare), followed by stirring for 3 to 5 minutes and further drying of the seeds. As a control, seeds treated by using the Blank slurry in place of the above slurry solution were used as seeds for a non-treated group. On wells of a 406-well plug plate, a filter paper was placed and rice seeds subjected to the above seed treatment were sown on the filter paper. Using a two-fold diluted Kimura B water culture solution (Plant Science 119: 39-47 (1996)), cultivation was performed for 14 days under the conditions of a temperature of 28° C./23° C. (day/night), an illuminance of 8,500 1× and a day length of 12 hours to obtain test plants. Test plants (each 5 seedlings) were placed in an empty 35 ml flat-bottomed test tube ([…]/manufactured by Sarstedt) and then left to stand for 2 days without being capped (this was used as a test group with the drought stress conditions). As a test group without the drought stress conditions, the test plants (each 5 seedlings) were placed in a centrifuge tube filled with 10 ml of a two-fold diluted Kimura B water culture solution, and then left to stand for 2 days without being capped. After that, the plants (each 5 seedlings) were transplanted to a plastic pot (N-71-130G, manufactured by TOKAN KOGYO CO., LTD.) filled with the field soil which had been subjected to a sterilization treatment and then cultivated for 14 days under the conditions of a temperature of 28° C./23° C. (day/night), an illuminance of 8,500 1× and a day length of 12 hours while performing bottom-surface irrigation. After the drought stress treatment, the fresh weight of the above-ground part of the five individuals of test plants in each test group was collectively measured and an average of 3 repetitions of each test group was determined. As a result, the fresh weight of the above-ground part of the test group in the present invention was apparently large as compared with the control and drought stress was reduced.

O=C(O)CCC(=O)NCCc1ccccc1 [Compound A, Na salt, 4-oxo-4-(2-phenylethyl)aminobutyric acid]
Ratio to non-treated group (0.01 mg/g of seeds): 105%
Ratio to non-treated group (0.1 mg/g of seeds): 105%
Ratio to non-treated group (0.25 mg/g of seeds): 119%
Ratio to non-treated group (0.3 mg/g of seeds): 121%
Fresh weight of the above-ground part (amount of chemical 0.01 mg/g of seeds): 0.73 g/5 seedlings
Fresh weight of the above-ground part (amount of chemical 0.1 mg/g of seeds): 0.73 g/5 seedlings
Fresh weight of the above-ground part (amount of chemical 0.25 mg/g of seeds): 0.83 g/5 seedlings
Fresh weight of the above-ground part (amount of chemical 0.3 mg/g of seeds): 0.84 g/5 seedlings
